Experimental data: US9493485B2, “Spirocyclic dihydro-thiazine and dihydro-oxazine BACE inhibitors, and compositions and uses thereof” (Imago Pharmaceuticals, Inc., priority 2012, dated 2016)
Each block holds one molecule with its values, some of them ahead of it.

Legend:
[1] = system: Aβ x-40 levels; test: In vivo reduction of Aβ x-40 levels in Sprague Dawley rat, oral dosing; conditions: for effect on brain Aβ x-40 levels / decrease of the mean Aβ x-40 compared to vehicle control in brain samples: rat cortical brain, 3 hours post dosing
Experimental: Ability of a compound as described herein to reduce the level of Aβ peptide in vivo was determined in a Sprague Dawley rat model. Compounds were dosed orally in female Sprague Dawley rats, along with a vehicle control, five rats per dose group. Compounds were formulated in 5% DMSO/0.5% methylcellulose, and dosed at various amounts (10 mL/kg), and 10 mL/kg vehicle by oral gavage. CSF was collected from the cistern magna under isoflurane anesthesia, frozen on dry ice and stored at −80° C. until assessed for Aβ peptide levels. […] Cortical brain samples were homogenized in 5 M guanidine and Aβ peptide was quantitated in these brain samples as well as plasma samples in an ELISA assay, where Aβ x-40 ELISA detects Aβ peptide N-terminal sequences containing the transmembrane region and ending at amino acid 40 at the C-terminus. The ELISA was performed as described in Johnson-Wood et al., PNAS February 1997, 94: 1550-1555, using capture antibody 266 (Aβ 16-23 specific) and biotinylated 2G3 (Aβ 40 specific) as reporter antibody. Results of cortical and plasma Aβ x-40 levels were statistically analyzed separately using a one-way Anova with a Dunnets post test analysis at the 0.05 significant level.

[2] = target: T1, BACE1 (Homo sapiens (Human), UniProt P56817); test: BACE1 AlphaScreen assay (displacement of biotinylated BACE1 binding site probe); conditions: read-out: BACE1 AS IC50
[3] = target: T1, BACE1; test: BACE1 FP assay; format: biochemical; conditions: pH 4.5
[4] = target: Cathepsin D (Homo sapiens (Human), UniProt P07339); test: Cathepsin D FP assay; format: biochemical; conditions: pH 4.5, read-out: CatD FP IC50
Method in brief: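 AlphaScreen (PBS, 0.01% Tween-20, 0.05% BSA, pH 7.0): compound preincubated 15 min with BACE1 ([…]), then biotinylated binding-site probe 1 h, beads 2 h; IC50 from signal. FP (100 mM sodium acetate, pH 4.5, 0.001% Tween-20): added BACE1 (0.3 nM) or cathepsin D (1.8 nM), 30 min RT.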

[5] = system: BACE1 inhibition in HEKp293 cells transfected with APP751 gene (SWE293); test: SWE293 cellular assay: reduction of Aβ peptide production, ELISA; format: cell-based; conditions: Homo sapiens; dose at which Aβ level is reduced by 50%, HEKp293 SWE293 cells; read-out: SWE293 ED50
Method in brief: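 SWE293 cells (HEK293 carrying APP751), plated overnight at 37 °C, received 1:3 serially diluted compound for two successive 2 h exposures with washes between. Medium Aβ was captured on 266-antibody plates, detected with 3D6 antibody and streptavidin-AP fluorescent substrate, and quantified against an Aβ-40 standard curve.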

T1 sequence (P56817 46-501): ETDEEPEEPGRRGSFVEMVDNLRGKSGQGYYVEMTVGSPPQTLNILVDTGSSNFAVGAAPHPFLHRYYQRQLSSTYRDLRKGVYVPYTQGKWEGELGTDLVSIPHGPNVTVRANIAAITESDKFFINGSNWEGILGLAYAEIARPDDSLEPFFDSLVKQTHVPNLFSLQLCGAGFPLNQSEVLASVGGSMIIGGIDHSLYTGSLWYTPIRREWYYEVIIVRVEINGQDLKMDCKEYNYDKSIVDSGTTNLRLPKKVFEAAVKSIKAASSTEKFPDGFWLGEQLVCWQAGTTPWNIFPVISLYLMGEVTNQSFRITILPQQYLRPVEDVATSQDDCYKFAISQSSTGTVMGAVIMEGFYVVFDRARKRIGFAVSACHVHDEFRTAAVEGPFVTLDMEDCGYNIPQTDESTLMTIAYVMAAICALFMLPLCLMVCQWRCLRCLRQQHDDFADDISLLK
Cathepsin D, sequence (P07339 65-412, species assumed): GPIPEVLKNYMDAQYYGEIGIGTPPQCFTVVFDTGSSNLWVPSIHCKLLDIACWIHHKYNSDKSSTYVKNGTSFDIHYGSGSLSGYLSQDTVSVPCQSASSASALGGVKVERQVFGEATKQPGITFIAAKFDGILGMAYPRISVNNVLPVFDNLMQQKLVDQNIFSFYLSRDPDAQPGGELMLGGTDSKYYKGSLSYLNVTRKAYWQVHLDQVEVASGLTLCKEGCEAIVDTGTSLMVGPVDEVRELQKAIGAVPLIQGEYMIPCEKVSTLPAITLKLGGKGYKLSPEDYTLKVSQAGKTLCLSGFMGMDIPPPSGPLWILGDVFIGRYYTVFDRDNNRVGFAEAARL

Compound: C[C@@]1(c2cc(NC(=O)c3ccc(Cl)cn3)ccc2F)CC2(CCOCC2)SC(N)=N1 [Compound 151]
duration of reduction in Aβ x-40 levels in CSF (relative to 12 hours in brain) ([1]; 30 mg/kg oral, rat, various timepoints, CSF): longer | duration of reduction in Aβ x-40 levels in brain samples ([1]; 30 mg/kg oral, rat, various timepoints, brain): up to 12 hours

Compound: CC#Cc1cncc(-c2csc([C@]3(C)CC4(CCOCC4)OC(N)=N3)c2)c1 [Compound 104]
effect on brain Aβ x-40 levels ([1]; 50 and 200 mg/kg oral): no significant effect

Compound: C[C@@]1(c2cc(NC(=O)c3ccc(Cl)cn3)ccc2F)CC2(CC2)OC(N)=N1 [Compound 154]
decrease of the mean Aβ x-40 compared to vehicle control in brain samples ([1]; 100 mg/kg oral): 25%

Compound: C[C@@]1(c2cc(NC(=O)c3ccc(F)cn3)ccc2F)CC2(CCOCC2)SC(N)=N1 [Compound 148]
decrease of the mean Aβ x-40 compared to vehicle control in brain samples ([1]; 10 mg/kg oral): 23% | decrease of the mean Aβ x-40 compared to vehicle control in brain samples ([1]; 30 mg/kg oral): 31% | decrease of the mean Aβ x-40 compared to vehicle control in brain samples ([1]; 60 mg/kg oral): 31% | decrease of the mean Aβ x-40 compared to vehicle control in brain samples ([1]; 100 mg/kg oral): 40%

Compound: CC1(c2cc(NC(=O)c3ccc(F)cn3)ccc2F)CC2(CCC2)OC(N)=N1 (centres unmarked) [Compound 125]
effect on brain Aβ x-40 levels ([1]; 30 or 100 mg/kg oral): no significant effect

IC50 [2]: 0.009 µM | IC50 [3]: 0.004 µM | IC50 [4]: 10.6 µM
Compound: CC1(c2cc(NC(=O)c3ccc(Cl)cn3)ccc2F)CC2(CCOCC2)SC(N)=N1 (centres unmarked) [Compound 9-150, N-(3-(2-amino-4-methyl-9-oxa-1-thia-3-azaspiro[5.5]undec-2-en-4-yl)-4-fluorophenyl)-5-chloropicolinamide]
IC50 [5]: < 0.004 µM

IC50 [2]: 0.011 µM | IC50 [3]: 0.299 µM | IC50 [4]: > 30 µM
Compound: Cc1nc(C(=O)Nc2ccc(F)c([C@]3(C)CC4(CCC4)OC(N)=N3)c2)co1 [Compound 9-138, (S)—N-(3-(6-amino-8-methyl-5-oxa-7-azaspiro[3.5]non-6-en-8-yl)-4-fluorophenyl)-2-methyloxazole-4-carboxamide]
IC50 [5]: 0.023 µM
